From US10723699B2 (Hyundai Pharm Co., Ltd., priority 2015, dated 2020)
Where two headings read alike, the source gives them in different places.

Molecular target: T1, G protein-coupled receptor 119 (GPR-119) (Mesocricetus auratus, UniProt A0A1U8CD06)
T1 construct: hamster-derived β-cells containing G protein-coupled receptor 119 (GPR-119), HIT-T15 cells; host or cells: HIT-T15 (hamster pancreatic β-cells)
T1 sequence (A0A1U8CD06 1-334): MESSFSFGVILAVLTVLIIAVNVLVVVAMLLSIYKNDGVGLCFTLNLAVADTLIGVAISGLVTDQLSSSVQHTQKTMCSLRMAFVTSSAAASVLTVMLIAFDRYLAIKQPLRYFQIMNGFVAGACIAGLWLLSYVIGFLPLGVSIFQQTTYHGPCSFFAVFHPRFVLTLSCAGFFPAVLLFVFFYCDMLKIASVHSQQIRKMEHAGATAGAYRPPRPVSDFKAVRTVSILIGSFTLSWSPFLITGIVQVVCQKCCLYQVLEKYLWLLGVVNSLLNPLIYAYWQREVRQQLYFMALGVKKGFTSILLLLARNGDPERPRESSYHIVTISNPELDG
Experiment: cAMP activity in HIT-T15 cells (cAMP dynamic kit, FRET)
Format: cell-based, hamster
Procedure, shortened: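 Hamster HIT-T15 cells (60,000/well) were treated next day with compound at six concentrations, 0.0032–10 μM, for 1 h at 37° C. Cells were then lysed and cAMP measured by competitive HTRF immunoassay (D2-cAMP, cryptate anti-cAMP). Activity was derived as the change in FRET signal relative to DMSO.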

[1] = 1 hour at 37° C., six concentrations 0.0032 to 10 μM, read-out: EC50

Compound | EC50 [1] [nM] | EC50 (Table 2, read-out: EC50 value) [nM] | EC50 (EC50 (nM), 1 hour at 37° C., six concentrations 0.0032 to 10 μM) [nM] | EC50 (EC50 value, Table 2) [nM]
CCN1CCN(C(=O)C2CC=C(c3ccc(OCC4CCN(c5nc(C(C)C)no5)CC4)c(F)c3)CC2)CC1 (stereo not drawn) [Example 346, (4-ethylpiperazin-1-yl)(4-(3-fluoro-4-((1-(3-isopropyl-1,2,4-oxadiazol-5-yl)piperidin-4-yl)methoxy)phenyl)cyclohex-3-enyl)methanone] | 100 |  |  | 
CC(C)c1noc(N2CCC(COc3ccc(C4=CCC(C(=O)N5CCN(CCCO)CC5)CC4)cc3F)CC2)n1 (stereo not drawn) [Example 347, (4-(3-fluoro-4-((1-(3-isopropyl-1,2,4-oxadiazol-5-yl)piperidin-4-yl)methoxy)phenyl)cyclohex-3-enyl)(4-(3-hydroxypropyl)piperazin-1-yl)methanone] | 55 |  |  | 
CC(C)c1noc(N2CCC(COc3ccc(C4=CCC(C(=O)N5CCN(C6CC6)CC5)CC4)cc3F)CC2)n1 (stereo not drawn) [Example 348, (4-cyclopropylpiperazin-1-yl)(4-(3-fluoro-4-((1-(3-isopropyl-1,2,4-oxadiazol-5-yl)piperidin-4-yl)methoxy)phenyl)cyclohex-3-enyl)methanone] | 14 | ≤ 50 |  | 
CCc1cnc(N2CCC(COc3ccc(C4=CCC(C(=O)N5CCCC5)CC4)cn3)CC2)nc1 (stereo not drawn) [Example 349, (4-(6-((1-(5-ethylpyrimidin-2-yl)piperidin-4-yl)methoxy)pyridin-3-yl)cyclohex-3-enyl)(pyrrolidin-1-yl)methanone] | 27 | ≤ 50 |  | 
CCc1cnc(N2CCC(COc3ccc(C4=CCC(C(=O)N5CCCCC5)CC4)cn3)CC2)nc1 (stereo not drawn) [Example 350, (4-(6-((1-(5-ethylpyrimidin-2-yl)piperidin-4-yl)methoxy)pyridin-3-yl)cyclohex-3-enyl)(piperidin-1-yl)methanone] | 52 |  |  | 
CCc1cnc(N2CCC(COc3ccc(C4=CCC(C(=O)N5CCOCC5)CC4)cn3)CC2)nc1 (stereo not drawn) [Example 351, (4-(6-((1-(5-ethylpyrimidin-2-yl)piperidin-4-yl)methoxy)pyridin-3-yl)cyclohex-3-enyl)(morpholino)methanone] | 41 | ≤ 50 |  | 
CCc1cnc(N2CCC(COc3ccc(C4=CCC(C(=O)N5CCSCC5)CC4)cn3)CC2)nc1 (stereo not drawn) [Example 352, (4-(6-((1-(5-ethylpyrimidin-2-yl)piperidin-4-yl)methoxy)pyridin-3-yl)cyclohex-3-enyl)(thiomorpholino)methanone] | 63 |  |  | 
CCc1cnc(N2CCC(COc3ccc(C4=CCC(C(=O)N5CCC(O)CC5)CC4)cn3)CC2)nc1 (stereo not drawn) [Example 353, (4-(6-((1-(5-ethylpyrimidin-2-yl)piperidin-4-yl)methoxy)pyridin-3-yl)cyclohex-3-enyl)(4-hydroxypiperidin-1-yl)methanone] | 58 |  |  | 
CCc1cnc(N2CCC(COc3ccc(C4=CCC(C(=O)N5CCC(CO)CC5)CC4)cn3)CC2)nc1 (stereo not drawn) [Example 354, (4-(6-((1-(5-ethylpyrimidin-2-yl)piperidin-4-yl)methoxy)pyridin-3-yl)cyclohex-3-enyl)(4-(hydroxymethyl)piperidin-1-yl)methanone] | 22 | ≤ 50 |  | 
CC(C)c1noc(N2CCC(COc3ccc(C4=CCC(C(=O)N5CCN(C6CC6)CC5)CC4)cn3)CC2)n1 (stereo not drawn) [Example 355, (4-cyclopropylpiperazin-1-yl)(4-(6-((1-(3-isopropyl-1,2,4-oxadiazol-5-yl)piperidin-4-yl)methoxy)pyridin-3-yl)cyclohex-3-enyl)methanone] | 46 | ≤ 50 |  | 
O=C(NCCO)C1CC=C(c2ccc(OCC3CCN(c4ncc(Br)cn4)CC3)cc2)CC1 (stereo not drawn) [Example 357, 4-(4-((1-(5-bromopyrimidin-2-yl)piperidin-4-yl)methoxy)phenyl)-N-(2-hydroxyethyl)cyclohex-3-enecarboxamide] | 150 |  |  | 
O=C(NCCO)C1CC=C(c2ccc(OCC3CCN(c4ccccn4)CC3)cc2)CC1 (stereo not drawn) [Example 358, N-(2-hydroxyethyl)-4-(4-((1-(pyridin-2-yl)piperidin-4-yl)methoxy)phenyl)cyclohex-3-enecarboxamide] | 190 |  |  | 
CCc1cnc(N2CCC(COc3ccc(C4=CCC(C(=O)N(C)CCO)CC4)cc3F)CC2)nc1 (stereo not drawn) [Example 359, 4-(4-((1-(5-ethylpyrimidin-2-yl)piperidin-4-yl)methoxy)-3-fluorophenyl)-N-(2-hydroxyethyl)-N-methylcyclohex-3-enecarboxamide] | 14 | ≤ 50 |  | 
CCc1cnc(N2CCC(COc3ccc(C4=CCC(C(=O)N(CC)CCO)CC4)cc3F)CC2)nc1 (stereo not drawn) [Example 360, N-ethyl-4-(4-((1-(5-ethylpyrimidin-2-yl)piperidin-4-yl)methoxy)-3-fluorophenyl)-N-(2-hydroxyethyl)cyclohex-3-enecarboxamide] | 8.8 | ≤ 50 |  | 
CC(C)c1noc(N2CCC(COc3ccc(C4=CCC(C(=O)N5CCC(C(N)=O)CC5)CC4)cc3F)CC2)n1 (stereo not drawn) [Example 361, 1-(4-(3-fluoro-4-((1-(3-isopropyl-1,2,4-oxadiazol-5-yl)piperidin-4-yl)methoxy)phenyl)cyclohex-3-enecarbonyl)piperidine-4-carboxamide] | 48 | ≤ 50 |  | 
CC(C)c1noc(N2CCC(COc3ccc(C4=CCC(C(=O)N5CCC(N6CCCCC6)CC5)CC4)cc3F)CC2)n1 (stereo not drawn) [Example 362, 1,4′-bipiperidin-1′-yl(4-(3-fluoro-4-((1-(3-isopropyl-1,2,4-oxadiazol-5-yl)piperidin-4-yl)methoxy)phenyl)cyclohex-3-enyl)methanone] | 180 |  |  | 
CC(C)c1noc(N2CCC(COc3ccc(C4=CCC(C(=O)NC5CC5)CC4)cc3F)CC2)n1 (stereo not drawn) [Example 363, N-cyclopropyl-4-(3-fluoro-4-((1-(3-isopropyl-1,2,4-oxadiazol-5-yl)piperidin-4-yl)methoxy)phenyl)cyclohex-3-enecarboxamide] | 110 |  |  | 
CC(C)c1noc(N2CCC(COc3ccc(C4=CCC(C(=O)NC5CCC5)CC4)cc3F)CC2)n1 (stereo not drawn) [Example 364, N-cyclobutyl-4-(3-fluoro-4-((1-(3-isopropyl-1,2,4-oxadiazol-5-yl)piperidin-4-yl)methoxy)phenyl)cyclohex-3-enecarboxamide] | 85 |  |  | 
CC(C)c1noc(N2CCC(COc3ccc(C4=CCC(C(=O)NC5CCCC5)CC4)cc3F)CC2)n1 (stereo not drawn) [Example 365, N-cyclopentyl-4-(3-fluoro-4-((1-(3-isopropyl-1,2,4-oxadiazol-5-yl)piperidin-4-yl)methoxy)phenyl)cyclohex-3-enecarboxamide] | 38 | ≤ 50 |  | 
CC(C)c1noc(N2CCC(COc3ccc(C4=CCC(C(=O)NC5CCCCC5)CC4)cc3F)CC2)n1 (stereo not drawn) [Example 366, N-cyclohexyl-4-(3-fluoro-4-((1-(3-isopropyl-1,2,4-oxadiazol-5-yl)piperidin-4-yl)methoxy)phenyl)cyclohex-3-enecarboxamide] | 39 | ≤ 50 |  | 
CCN1CCN(C(=O)C2CC=C(c3ccc(OCC4CCN(c5nc(C(C)C)no5)CC4)c(F)c3)CC2)CC1 (stereo not drawn) [Example 367, (4-ethylpiperazin-1-yl)(4-(3-fluoro-4-((1-(3-isopropyl-1,2,4-oxadiazol-5-yl)piperidin-4-yl)methoxy)phenyl)cyclohex-3-enyl)methanone] | 26 | ≤ 50 |  | 
CC(C)c1noc(N2CCC(COc3ccc(C4=CCC(C(=O)N5CCN(CCCO)CC5)CC4)cc3F)CC2)n1 (stereo not drawn) [Example 368, (4-(3-fluoro-4-((1-(3-isopropyl-1,2,4-oxadiazol-5-yl)piperidin-4-yl)methoxy)phenyl)cyclohex-3-enyl)(4-(3-hydroxypropyl)piperazin-1-yl)methanone] | 48 | ≤ 50 |  | 
CC(C)c1noc(N2CCC(COc3ccc(C4=CCC(C(=O)N5CCN(C6CC6)CC5)CC4)cc3F)CC2)n1 (stereo not drawn) [Example 369, (4-cyclopropylpiperazin-1-yl)(4-(3-fluoro-4-((1-(3-isopropyl-1,2,4-oxadiazol-5-yl)piperidin-4-yl)methoxy)phenyl)cyclohex-3-enyl)methanone] | 9 |  |  | 
CC(C)c1noc(N2CCC(COc3ccc(C4=CCC(C(=O)N5CCC6(CC5)OCCO6)CC4)cc3F)CC2)n1 (stereo not drawn) [Example 370, (4-(3-fluoro-4-((1-(3-isopropyl-1,2,4-oxadiazol-5-yl)piperidin-4-yl)methoxy)phenyl)cyclohex-3-enyl)(1,4-dioxa-8-azaspiro[4.5]decan-8-yl)methanone] |  |  | 15 | ≤ 50
CC(C)c1noc(N2CCC(COc3ccc(C4=CCC(C(=O)NCC(C)(C)CO)CC4)cc3F)CC2)n1 (stereo not drawn) [Example 371, 4-(3-fluoro-4-((1-(3-isopropyl-1,2,4-oxadiazol-5-yl)piperidin-4-yl)methoxy)phenyl)-N-(3-hydroxy-2,2-dimethylpropyl)cyclohex-3-enecarboxamide] | 39 | ≤ 50 |  | 
CC(C)c1noc(N2CCC(COc3ccc(C4=CCC(C(=O)N(CCO)CCO)CC4)cc3F)CC2)n1 (stereo not drawn) [Example 372, 4-(3-fluoro-4-((1-(3-isopropyl-1,2,4-oxadiazol-5-yl)piperidin-4-yl)methoxy)phenyl)-N,N-bis(2-hydroxyethyl)cyclohex-3-enecarboxamide] | 46 | ≤ 50 |  | 
CCc1cnc(N2CCC(COc3ccc(C4=CCC(C(=O)N5CCCC5)CC4)cc3C(F)(F)F)CC2)nc1 (stereo not drawn) [Example 374] | 150 |  |  | 
